According to ChEMBL document CHEMBL5715937, “In vitro activity of Bcr-Abl inhibitors AMN107 and BMS-354825 against clinically relevant imatinib-resistant Abl kinase domain mutants” (Cancer Res, 2005):
Calls of active or inactive are those of the source. No cut-off for these calls is given here.

What was measured:
[1] = Inhibition of BCR-ABL H396P mutant (unknown origin) expressed in mouse BaF3 cells assessed as inhibition of cell growth incubated for 72 hrs by […] CellTiter96 viability analysis
[2] = Inhibition of BCR-ABL H396P mutant (unknown origin) expressed in mouse BaF3 cells assessed as inhibition of tyrosine phosphorylation incubated for 3 hrs by immunoblotting analysis; assay type: cell-based; settings: BaF3, 3 h
cells [3] = settings: Mus musculus, BaF3, 3 h
BaF3 [4] = assay: Induction of apoptosis in mouse BaF3 cells expressing Bcr-Abl Y253F mutant assessed as increase in apoptotic cells at 1500 nM incubated for 72 hrs by Annexin V-phycoerythrin and 7-amino-actinomycin D staining based PCA instrument analysis relative to control; assay type: functional
BaF3 [5] = assay: Induction of apoptosis in mouse BaF3 cells expressing Bcr-Abl H396P mutant assessed as increase in apoptotic cells at 1500 nM incubated for 72 hrs by Annexin V-phycoerythrin and 7-amino-actinomycin D staining based PCA instrument analysis relative to control; assay type: functional
cells [6] = settings: Mus musculus, BaF3, 3 h; remark: listed apart in the source
BaF3 [7] = assay: Induction of apoptosis in mouse BaF3 cells expressing Bcr-Abl L387M mutant assessed as increase in apoptotic cells at 1500 nM incubated for 72 hrs by Annexin V-phycoerythrin and 7-amino-actinomycin D staining based PCA instrument analysis relative to control; assay type: functional
[8] = Inhibition of BCR-ABL V379l mutant (unknown origin) expressed in mouse BaF3 cells assessed as inhibition of tyrosine phosphorylation incubated for 3 hrs by immunoblotting analysis; assay type: cell-based; settings: BaF3, 3 h
BaF3 [9] = assay: Induction of apoptosis in mouse BaF3 cells expressing Bcr-Abl F317L mutant at 30 to 300 nM incubated for 72 hrs by Annexin V-phycoerythrin and 7-amino-actinomycin D staining based PCA instrument analysis; assay type: functional, cell-based; settings: dose 30-300 nM
[10] = Inhibition of BCR-ABL phosphorylation in mouse BaF3 cells incubated for 3 hrs by immunoblotting analysis; assay type: functional, cell-based
[11] = Inhibition of BCR-ABL M244V mutant (unknown origin) expressed in mouse BaF3 cells assessed as inhibition of cell growth incubated for 72 hrs by […] CellTiter96 viability analysis; settings: BaF3, time 72 hrs, condition chronic myelogenous leukemia
BaF3 [12] = assay: Induction of apoptosis in mouse BaF3 cells expressing Bcr-Abl H396R mutant assessed as increase in apoptotic cells at 1500 nM incubated for 72 hrs by Annexin V-phycoerythrin and 7-amino-actinomycin D staining based PCA instrument analysis relative to control; assay type: functional
cells [13] = settings: Mus musculus, BaF3, 3 h; remark: listed apart in the source
[14] = Inhibition of BCR-ABL Q252H mutant (unknown origin) expressed in mouse BaF3 cells assessed as inhibition of cell growth incubated for 72 hrs by […] CellTiter96 viability analysis
BaF3 [15] = assay: Induction of apoptosis in mouse BaF3 cells expressing Bcr-Abl F359V mutant at 30 to 300 nM incubated for 72 hrs by Annexin V-phycoerythrin and 7-amino-actinomycin D staining based PCA instrument analysis; assay type: functional, cell-based; settings: dose 30-300 nM
BaF3 [16] = assay: Induction of apoptosis in mouse BaF3 cells expressing Bcr-Abl V379l mutant assessed as increase in apoptotic cells at 1500 nM incubated for 72 hrs by Annexin V-phycoerythrin and 7-amino-actinomycin D staining based PCA instrument analysis relative to control; assay type: functional
BaF3 [17] = assay: Induction of apoptosis in mouse BaF3 cells expressing Bcr-Abl Y253H mutant at 30 to 300 nM incubated for 72 hrs by Annexin V-phycoerythrin and 7-amino-actinomycin D staining based PCA instrument analysis; assay type: functional, cell-based; settings: dose 30-300 nM
cells [18] = settings: Mus musculus, BaF3, 3 h; remark: listed apart in the source
[19] = Inhibition of BCR-ABL V379l mutant (unknown origin) expressed in mouse BaF3 cells assessed as inhibition of cell growth incubated for 72 hrs by […] CellTiter96 viability analysis
[20] = Inhibition of BCR-ABL E255V mutant (unknown origin) expressed in mouse BaF3 cells assessed as inhibition of cell growth incubated for 72 hrs by […] CellTiter96 viability analysis
cells [21] = settings: Mus musculus, BaF3, 72 h
cells [22] = settings: Mus musculus, BaF3, 3 h; remark: listed apart in the source
cells [23] = settings: Mus musculus, BaF3, 3 h; remark: listed apart in the source
cells [24] = settings: Mus musculus, BaF3, 3 h; remark: listed apart in the source
cells [25] = settings: Mus musculus, BaF3, 3 h; remark: listed apart in the source
BaF3 [26] = assay: Induction of apoptosis in mouse BaF3 cells at 30 to 1500 nM incubated for 72 hrs by Annexin V-phycoerythrin and 7-amino-actinomycin D staining based PCA instrument analysis relative to control; assay type: toxicity, cell-based; settings: baf3, 72 h, 1.5 µM, dose 30-1500 nM
cells [27] = settings: Mus musculus, BaF3, 3 h; remark: listed apart in the source
[28] = Inhibition of BCR-ABL L387M mutant (unknown origin) expressed in mouse BaF3 cells assessed as inhibition of tyrosine phosphorylation incubated for 3 hrs by immunoblotting analysis; assay type: cell-based; settings: BaF3, 3 h
BaF3 [29] = assay: Induction of apoptosis in mouse BaF3 cells expressing Bcr-Abl M244V mutant at 30 to 300 nM incubated for 72 hrs by Annexin V-phycoerythrin and 7-amino-actinomycin D staining based PCA instrument analysis; assay type: functional, cell-based; settings: dose 30-300 nM
BaF3 [30] = assay: Induction of apoptosis in mouse BaF3 cells expressing Bcr-Abl Y253H mutant assessed as increase in apoptotic cells at 1500 nM incubated for 72 hrs by Annexin V-phycoerythrin and 7-amino-actinomycin D staining based PCA instrument analysis relative to control; assay type: functional
BaF3 [31] = assay: Induction of apoptosis in mouse BaF3 cells expressing Bcr-Abl T315I mutant at 30 to 1500 nM incubated for 72 hrs by Annexin V-phycoerythrin and 7-amino-actinomycin D staining based PCA instrument analysis relative to control; assay type: functional, cell-based; settings: dose 30-1500 nM
cells [32] = settings: Mus musculus, BaF3, 3 h; remark: listed apart in the source
BaF3 [33] = assay: Induction of apoptosis in mouse BaF3 cells expressing wild-type Bcr-Abl at 30 to 300 nM incubated for 72 hrs by Annexin V-phycoerythrin and 7-amino-actinomycin D staining based PCA instrument analysis; assay type: functional, cell-based; settings: dose 30-300 nM
[34] = Inhibition of BCR-ABL G250E mutant (unknown origin) expressed in mouse BaF3 cells assessed as inhibition of cell growth incubated for 72 hrs by […] CellTiter96 viability analysis
cells [35] = settings: Mus musculus, BaF3, 3 h; remark: listed apart in the source
[36] = Inhibition of BCR-ABL L387M mutant (unknown origin) expressed in mouse BaF3 cells assessed as inhibition of cell growth incubated for 72 hrs by […] CellTiter96 viability analysis; settings: BaF3, time 72 hrs, condition chronic myelogenous leukemia
[37] = BaF3, time 72 hrs, condition chronic myelogenous leukemia

## Cc1cn(-c2cc(NC(=O)c3ccc(C)c(Nc4nccc(-c5cccnc5)n4)c3)cc(C(F)(F)F)c2)cn1 [NILOTINIB]
[1]; BaF3, 72 h
  IC50: 41 nM
[1]; [37]
  IC90: 69 nM
[2]
  IC50: 70 nM
Cells [3]
  IC50: 47 nM
BaF3 [4]
  Activity: >90%
BaF3 [5]
  Activity: >90%
Cells [6]
  IC50: 250 nM
BaF3 [7]
  Activity: >90%
[8]
  IC50: 15 nM
BaF3 [9]
  Activity: Active
[10]
  IC50: Not Active
[11]
  IC90: 56 nM
BaF3 [12]
  Activity: >90%
Cells [13]
  IC50: 15 nM
[14]; BaF3, 72 h
  IC50: 70 nM
[14]; [37]
  IC90: 156 nM
BaF3 [15]
  Activity: Active
BaF3 [16]
  Activity: >90%
BaF3 [17]
  Activity: Active
Cells [18]
  IC50: 55 nM
[19]; BaF3, 72 h
  IC50: 51 nM
[19]; [37]
  IC90: 115 nM
[20]; BaF3, 72 h
  IC50: 430 nM
[20]; [37]
  IC90: 2000 nM
Cells [21]
  IC50: > 2000 nM
Cells [22]
  IC50: 8 nM
Cells [23]
  IC50: 22 nM
Cells [24]
  IC50: > 5000 nM
Cells [25]
  IC50: 8 nM
BaF3 [26]
  Activity: Non-Toxic
Cells [27]
  IC50: 70 nM
[28]
  IC50: 33 nM
BaF3 [29]
  Activity: Active
BaF3 [30]
  Activity: 65%
BaF3 [31]
  Activity: inactive
Cells [32]
  IC50: 43 nM
BaF3 [33]
  Activity: Active
[34]; BaF3, 72 h
  IC50: 48 nM
[34]; [37]
  IC90: 152 nM
Cells [35]
  IC50: 7 nM
[36]
  IC90: 115 nM
